Experimental data taken from patent US20150065888A1, “METHOD AND APPARATUS FOR OBTAINING VASODILATION DATA REPRESENTING CUTANEOUS LOCAL THERMAL HYPEREMIA RESPONSE OF A SUBJECT” (NEW CHINESE BIOTECHNOLOGY CORPORATION LTD, priority 2012, published 2015).

Test system: cutaneous local thermal hyperemia response
Test: Cutaneous local thermal hyperemia test by laser Doppler flowmetry before and after chemical intervention (oral β-blocker)
Type: in vivo, human
Details: subject with panic disorder, 30 minutes after oral propranolol 10 mg
Experimental: The participants were supine during the entire test period. Cutaneous blood flow was measured by LDF (Moor DRT4, Moor Instruments Ltd, Axminster, Devon, UK). For each measurement, blood pressure was recorded continuously with a non-invasive blood pressure monitor (CareTaker, Empirical Technologies Corporation, Charlottesville, Va., USA) on the middle finger of the dominant hand throughout the procedures.
Blood flow was recorded simultaneously on the upper one-fourth of the bilateral forearm using LDF (DP12-V2 probe, 2 channels, length: 12 mm, diameter 1.5 mm; Moor Instruments Ltd.), and two recording sites were located at the radial half of the flexor and extensor aspects of the forearm, which were located according to a predefined rule. The probe was mounted to a probe holder to hold the probe in position. The extensor and flexor recording sites were located along the line between the extensor and flexor aspects of the lateral epicondyle of the humerus, respectively, and the lateral side of the styloid process of radius. The same sites were measured bilaterally with the flexor and extensor aspects in a random sequence. The recording sites were kept thermally neutral at 33° C. by a heater (SH02-SHP2 probe, Moor Instruments Ltd.) for 5 minutes for the baseline measurement, and then the temperature was increased to 42° C. by 1° C./10 seconds and maintained at 42° C. for up to 5 minutes. After completing the measurements, the holders were maintained in situ, and all of the procedures were repeated with the same recording sequence 45 minutes after the first measurement. The holders were then removed without marking after the first day of the experiment. The same procedures were conducted at the same time 1 to 3 days later, and the recording sites were relocated according to the same predefined rule.
Cutaneous red blood cell flux (RBCF), expressed as arbitrary perfusion units (PUs), was used to indicate local cutaneous blood flow, and CVC (PU/mmHg), which derived from RBCF divided by mean arterial pressure to adjust for the influence of blood pressure, was the indicator of blood flow change.
Baseline CVC, peak CVC, absolute change of peak CVC, percent change of peak CVC, 4 minutes area-under-the-curve (AUC), and time to peak flux were used as indicators of the hyperemic response during heating. The absolute change of peak CVC was defined as the peak CVC minus baseline CVC, and the percentage of peak CVC change equals to the absolute change of peak CVC divided by baseline CVC multiplied by 100%. The 4 minutes AUC was the accumulation of blood flux during the first 4 minutes of the heating period. The time to peak flux was the period from the heating started and up to peak flux.
Upon arrival in the laboratory, the subjects were arranged on chairs in a temperature- and humidity-controlled laboratory (40-60% humidity, 25±1° C.) for acclimation of 30 minutes. After the acclimation period, the thermal hyperemia test was performed at specified sampling sites. The participants were supine during the entire test period. Cutaneous blood flow was measured by LDF (Moor DRT4, Moor Instruments Ltd, Axminster, Devon, UK). For each measurement, blood pressure was recorded continuously with a non-invasive blood pressure monitor (CareTaker, Empirical Technologies Corporation, Charlottesville, Va., USA) on the middle finger of the dominant hand throughout the procedures. The sampling and data processing procedures taught in Example 1, above, also applied in the present example.
Subject (45 kg) suffering from panic disorder was sampled at the infraclavicular, parasternal and axilla sites (points (i), (j) and (l) in FIG. 2) on both the right and left sides before and after the administration of β-blocker. Specifically, the post-β-blocker sampling procedure was performed at 30 minutes after the oral administration of β-blocker, propranolol, (10 mg).

**Q.** Which “CVCI, max, After” value (Axilla, left) does the source give for CC(C)NCC(O)COc1cccc2ccccc12 (stereo not drawn) [propranolol] here?
**A.** Its value is 1.09 PU/mmHg.

**Q.** And the “Initial AUC, After” value (Axilla, left)?
**A.** The value was 17019 PU.

**Q.** What about the “ΔCVC, After” value (Axilla, left) of the same compound?
**A.** The value was 0.92 PU/mmHg.

**Q.** What about the “CVCI, max, After” value (Axilla, right) of the same compound?
**A.** Its value is 1.91 PU/mmHg.

**Q.** What about the “Initial AUC, After” value (Axilla, right) of the same compound?
**A.** Its value is 31740 PU.

**Q.** What about the “ΔCVC, After” value (Axilla, right) of the same compound?
**A.** Its value is 1.63 PU/mmHg.

**Q.** What about the “CVCI, max, After” value (Infraclavicular, left) of the same compound?
**A.** Its value is 1.03 PU/mmHg.

**Q.** What about the “Initial AUC, After” value (Infraclavicular, left) of the same compound?
**A.** Its value is 17298 PU.

**Q.** And the “ΔCVC, After” value (Infraclavicular, left)?
**A.** Its value is 0.88 PU/mmHg.

**Q.** What about the “CVCI, max, After” value (Infraclavicular, right) of the same compound?
**A.** The value was 1.95 PU/mmHg.

**Q.** And the “Initial AUC, After” value (Infraclavicular, right)?
**A.** The value was 33797 PU.

**Q.** What about the “ΔCVC, After” value (Infraclavicular, right) of the same compound?
**A.** The value was 1.76 PU/mmHg.

**Q.** And the “CVCI, max, After” value (Parasternal, left)?
**A.** Its value is 1.45 PU/mmHg.

**Q.** And the “Initial AUC, After” value (Parasternal, left)?
**A.** The value was 26800 PU.

**Q.** What about the “ΔCVC, After” value (Parasternal, left) of the same compound?
**A.** Its value is 1.28 PU/mmHg.

**Q.** And the “CVCI, max, After” value (Parasternal, right)?
**A.** Its value is 2.53 PU/mmHg.

**Q.** And the “Initial AUC, After” value (Parasternal, right)?
**A.** Its value is 47602 PU.

**Q.** What about the “ΔCVC, After” value (Parasternal, right) of the same compound?
**A.** The value was 2.36 PU/mmHg.
